Assay results as given in patent publication US9862717B2 (Merck Patent GmbH, priority 2014, dated 2018).

Molecular target: T1, CDK8/CycC (Homo sapiens, UniProt P49336)
T1 construct: purchased Invitrogen PV4402
Experiment: FRET based Lanthascreen binding competition assay for CDK8 inhibitory activity
Conditions: CDK8 co-expressed with CycC; class symbols; read-out: IC50
How it was run: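 Competition binding of a dye-labeled ATP-competitive Alexa647 probe to CDK8 co-expressed with CycC, Eu-labeled via biotinylated anti-His antibody/streptavidin.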

T1 sequence (P49336 whole entry): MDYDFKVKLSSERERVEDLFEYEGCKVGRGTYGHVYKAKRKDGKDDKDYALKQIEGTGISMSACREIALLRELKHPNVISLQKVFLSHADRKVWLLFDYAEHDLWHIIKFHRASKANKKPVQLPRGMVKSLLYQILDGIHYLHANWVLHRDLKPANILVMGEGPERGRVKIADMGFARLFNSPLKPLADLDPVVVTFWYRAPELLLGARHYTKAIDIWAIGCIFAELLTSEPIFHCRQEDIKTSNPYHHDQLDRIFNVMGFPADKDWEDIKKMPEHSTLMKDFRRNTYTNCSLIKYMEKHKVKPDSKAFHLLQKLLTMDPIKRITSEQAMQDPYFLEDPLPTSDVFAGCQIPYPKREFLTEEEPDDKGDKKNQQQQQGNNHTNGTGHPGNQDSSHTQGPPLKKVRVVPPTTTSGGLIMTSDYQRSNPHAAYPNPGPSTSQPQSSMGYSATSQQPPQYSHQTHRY
T1 sequence (P24863 whole entry partner): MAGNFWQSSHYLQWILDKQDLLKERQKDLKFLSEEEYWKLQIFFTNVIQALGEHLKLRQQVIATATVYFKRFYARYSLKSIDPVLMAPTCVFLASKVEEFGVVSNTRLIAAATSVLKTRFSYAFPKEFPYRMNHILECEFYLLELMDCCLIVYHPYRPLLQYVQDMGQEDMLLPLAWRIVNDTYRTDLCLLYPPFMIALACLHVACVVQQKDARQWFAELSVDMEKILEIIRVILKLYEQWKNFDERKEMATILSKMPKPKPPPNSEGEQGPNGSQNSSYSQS

Question: For `Cc1n[nH]c2ncc(C(=O)N3CCC(C(N)=O)CC3c3ccccc3)cc12` (centres unmarked) [compound 235, 1-(3-Methyl-1H-pyrazolo[3,4-b]pyridine-5-carbonyl)-2-phenyl-piperidine-4-carboxylic acid amide], which IC50 is on record?
Answer: 0.1 to 1 µM

Question: Which IC50 does the source give for `Cc1n[nH]c2ncc(C(=O)N3CCC(O)(c4ccc(Cl)cc4)C3)cc12` (centres unmarked) [compound 237, [3-(4-Chloro-phenyl)-3-hydroxy-pyrrolidin-1-yl]-(3-methyl-1H-pyrazolo[3,4-b]pyridin-5-yl)-methanone] here?
Answer: 0.1 to 1 µM

Question: Which IC50 does the source give for `Nc1n[nH]c2ccc(C(=O)N3CCC(O)(c4ccc(Cl)cc4)C3)cc12` (centres unmarked) [compound 238, (3-Amino-1H-indazol-5-yl)-[3-(4-chloro-phenyl)-3-hydroxy-pyrrolidin-1-yl]-methanone] here?
Answer: 0.1 to 1 µM

Question: `O=C(c1cnc2[nH]ncc2c1)N1CCC[C@H]1c1ccc(Cl)cc1` [compound 239, [(S)-2-(4-Chloro-phenyl)-pyrrolidin-1-yl]-(1H-pyrazolo[3,4-b]pyridin-5-yl)-methanone] was tested. Which IC50 did it give?
Answer: 0.1 to 1 µM

Question: For `Cc1n[nH]c2ncc(C(=O)N3CC[C@@H]3c3ccc(Cl)cc3)cc12` [compound 240, [(R)-2-(4-Chloro-phenyl)-azetidin-1-yl]-(3-methyl-1H-pyrazolo[3,4-b]pyridin-5-yl)-methanone], which IC50 is on record?
Answer: 1 to 10 µM

Question: How did the IC50 turn out when `Cc1n[nH]c2ncc(C(=O)N3CC[C@H]3c3ccc(Cl)cc3)cc12` [compound 241, [(S)-2-(4-Chloro-phenyl)-azetidin-1-yl]-(3-methyl-1H-pyrazolo[3,4-b]pyridin-5-yl)-methanone] was run?
Answer: 0.01 to 0.1 µM

Question: `Cc1n[nH]c2ccc(C(=O)N3CCC[C@H]3c3ccc(F)cc3)nc12` [compound 242, (S)-(2-(4-fluorophenyl)pyrrolidin-1-yl)(3-methyl-1H-pyrazolo[4,3-b]pyridin-5-yl)methanone] was tested. Which IC50 did it give?
Answer: < 0.01 µM

Question: For `COc1n[nH]c2ncc(C(=O)N3CCC[C@H]3c3ccc(Cl)cc3)cc12` [compound 243, (S)-(2-(4-chlorophenyl)pyrrolidin-1-yl)(3-methoxy-1H-pyrazolo[3,4-b]pyridin-5-yl)methanone], which IC50 is on record?
Answer: 0.01 to 0.1 µM

Question: For `Cc1n[nH]c2ncc(C(=O)N3CCC[C@H]3c3ccc4[nH]ncc4c3)cc12` [compound 245, [(S)-2-(1H-Indazol-5-yl)-pyrrolidin-1-yl]-(3-methyl-1H-pyrazolo[3,4-b]pyridin-5-yl)-methanone], which IC50 is on record?
Answer: 0.01 to 0.1 µM

Question: With `Cc1n[nH]c2ncc(C(=O)N3CCC[C@@H]3c3ccc4[nH]ncc4c3)cc12` [compound 246, [(R)-2-(1H-Indazol-5-yl)-pyrrolidin-1-yl]-(3-methyl-1H-pyrazolo[3,4-b]pyridin-5-yl)-methanone] as the compound, how does the IC50 read?
Answer: 1 to 10 µM

Question: How did the IC50 turn out when `Cc1n[nH]c2ncc(C(=O)N3CCC[C@H]3c3ccc(C#N)cc3)cc12` [compound 247, 4-[(S)-1-(3-Methyl-1H-pyrazolo[3,4-b]pyridine-5-carbonyl)-pyrrolidin-2-yl]-benzonitrile] was run?
Answer: 0.01 to 0.1 µM

Question: `Cc1n[nH]c2ncc(C(=O)N3CCC[C@@H]3c3ccc(C#N)cc3)cc12` [compound 248, 4-[(R)-1-(3-Methyl-1H-pyrazolo[3,4-b]pyridine-5-carbonyl)-pyrrolidin-2-yl]-benzonitrile] was tested. Which IC50 did it give?
Answer: 1 to 10 µM

Question: Which IC50 does the source give for `Cc1n[nH]c2ncc(C(=O)N3CCC(CCO)(c4ccc(Cl)cc4)C3)cc12` (centres unmarked) [compound 249, [3-(4-Chloro-phenyl)-3-(2-hydroxy-ethyl)-pyrrolidin-1-yl]-(3-methyl-1H-pyrazolo[3,4-b]pyridin-5-yl)-methanone] here?
Answer: 0.01 to 0.1 µM

Question: For `Nc1n[nH]c2ccc(C(=O)N3CCC(CCO)(c4ccc(Cl)cc4)C3)cc12` (centres unmarked) [compound 250, (3-Amino-1H-indazol-5-yl)-[3-(4-chloro-phenyl)-3-(2-hydroxy-ethyl)-pyrrolidin-1-yl]-methanone], which IC50 is on record?
Answer: 0.1 to 1 µM

Question: How did the IC50 turn out when `Cc1n[nH]c2ncc(C(=O)N3C[C@H](N)C[C@H]3c3ccc(Cl)cc3)cc12` [compound 251, [(2S,4R)-4-Amino-2-(4-chloro-phenyl)-pyrrolidin-1-yl]-(3-methyl-1H-pyrazolo[3,4-b]pyridin-5-yl)-methanone] was run?
Answer: 0.1 to 1 µM

Question: Which IC50 does the source give for `Cc1n[nH]c2ncc(C(=O)N3CCC[C@H]3c3ccc(Cl)c(C#N)c3)cc12` [compound 252, 2-Chloro-5-[(S)-1-(3-methyl-1H-pyrazolo[3,4-b]pyridine-5-carbonyl)-pyrrolidin-2-yl]-benzonitrile] here?
Answer: 0.1 to 1 µM

Question: With `Cc1n[nH]c2ncc(C(=O)N3CCC[C@@H]3c3ccc(Cl)c(C#N)c3)cc12` [compound 253, 2-Chloro-5-[(R)-1-(3-methyl-1H-pyrazolo[3,4-b]pyridine-5-carbonyl)-pyrrolidin-2-yl]-benzonitrile] as the compound, how does the IC50 read?
Answer: 1 to 10 µM

Question: With `CN[C@@H]1C[C@@H](c2ccc(Cl)cc2)N(C(=O)c2cnc3[nH]nc(C)c3c2)C1` [compound 254, [(2S,4R)-2-(4-Chloro-phenyl)-4-methylamino-pyrrolidin-1-yl]-(3-methyl-1H-pyrazolo[3,4-b]pyridin-5-yl)-methanone] as the compound, how does the IC50 read?
Answer: 0.1 to 1 µM

Question: With `Cc1n[nH]c2ncc(C(=O)N3C[C@@H](O)[C@H](c4ccc(Cl)cc4)C3)cc12` [compound 255, [(3R,4S)-3-(4-Chloro-phenyl)-4-hydroxy-pyrrolidin-1-yl]-(3-methyl-1H-pyrazolo[3,4-b]pyridin-5-yl)-methanone] as the compound, how does the IC50 read?
Answer: 1 to 10 µM

Question: `Cc1n[nH]c2ncc(C(=O)N3C[C@H](c4ccc(Cl)cc4)[C@@H](O)C3)cc12` [compound 256, [(3S,4R)-3-(4-Chloro-phenyl)-4-hydroxy-pyrrolidin-1-yl]-(3-methyl-1H-pyrazolo[3,4-b]pyridin-5-yl)-methanone] was tested. Which IC50 did it give?
Answer: < 0.01 µM

Question: With `Cc1n[nH]c2ccc(C(=O)N3CCC[C@H]3c3ccc(C(F)(F)F)cc3)nc12` [compound 257, (S)-(3-Methyl-1H-pyrazolo[4,3-b]pyridin-5-yl)(2-(4-(trifluoromethyl)phenyl)pyrrolidin-1-yl)methanone] as the compound, how does the IC50 read?
Answer: < 0.01 µM

Question: `Cc1n[nH]c2ncc(C(=O)N3CCC[C@@H]3c3cccc(C#N)c3)cc12` [compound 258, 3-[(R)-1-(3-Methyl-1H-pyrazolo[3,4-b]pyridine-5-carbonyl)-pyrrolidin-2-yl]-benzonitrile] was tested. Which IC50 did it give?
Answer: 1 to 10 µM

Question: For `Cc1n[nH]c2ncc(C(=O)N3CCC[C@H]3c3cccc(C#N)c3)cc12` [compound 259, 3-[(S)-1-(3-Methyl-1H-pyrazolo[3,4-b]pyridine-5-carbonyl)-pyrrolidin-2-yl]-benzonitrile], which IC50 is on record?
Answer: 0.1 to 1 µM

Question: For `Cc1n[nH]c2ccc(C(=O)N3CCCC3c3ccc(Cl)c(F)c3)nc12` (centres unmarked) [compound 260, (2-(4-chloro-3-fluorophenyl)pyrrolidin-1-yl)(3-methyl-1H-pyrazolo[4,3-b]pyridin-5-yl)methanone], which IC50 is on record?
Answer: < 0.01 µM

Question: With `Cc1n[nH]c2ncc(C(=O)N3C[C@H](O)C[C@H]3c3ccc(Cl)cc3)cc12` [compound 261, [(2S,4R)-2-(4-Chloro-phenyl)-4-hydroxy-pyrrolidin-1-yl]-(3-methyl-1H-pyrazolo[3,4-b]pyridin-5-yl)-methanone] as the compound, how does the IC50 read?
Answer: 0.1 to 1 µM

Question: With `Cc1n[nH]c2ncc(C(=O)N3CCC[C@H]3c3ccc(CN)cc3)cc12` [compound 262, [(S)-2-(4-Aminomethyl-phenyl)-pyrrolidin-1-yl]-(3-methyl-1H-pyrazolo[3,4-b]pyridin-5-yl)-methanone] as the compound, how does the IC50 read?
Answer: 0.1 to 1 µM

Same assay, conditions: CDK8 co-expressed with CycC; numeric value; read-out: IC50

Question: With `Nc1n[nH]c2cnc(C(=O)N3CCC[C@H]3c3ccc(Cl)cc3)cc12` [compound 265] as the compound, how does the IC50 read?
Answer: 0.34 µM

Same assay, conditions: IC50 [μM], CDK8 co-expressed with CycC; class symbols

Question: With `CNc1n[nH]c2ccc(C(=O)N3CCC[C@H]3c3ccc(Cl)cc3)cc12` [compound 236, [(S)-2-(4-Chloro-phenyl)-pyrrolidin-1-yl]-(3-methylamino-1H-indazol-5-yl)-methanone] as the compound, how does the IC50 read?
Answer: < 0.01 µM

Question: Which IC50 does the source give for `Cc1n[nH]c2ccc(C(=O)N3CCN(C)CC3c3ccc(Cl)cc3)cc12` (centres unmarked) [compound 244, (2-(4-chlorophenyl)-4-methylpiperazin-1-yl)(3-methyl-1H-indazol-5-yl)methanone] here?
Answer: 0.01 to 0.1 µM
